In PubChem BioAssay AID504930 (The Scripps Research Institute Molecular Screening Center, 2011):

Test system: granule cell progenitor proliferation, radioactive thymidine incorporation
Test: inhibition of GCP proliferation, late-stage follow-up, counter-screen for Wee1 degradation inhibitor project, cell-based, radioactive thymidine incorporation (AID 504930)

Structure (SMILES) | IC50
c1ccc2[nH]c(CNc3nc(N4CCOCC4)nc4c3ncn4-c3ccsc3)nc2c1 | 11.6 nM
O=[N+]([O-])c1cccc2[nH]c(CNc3nc(N4CCOCC4)nc4c3ncn4-c3ccsc3)nc12 | 4.61 nM
